What was measured:
human B1R = molecular target: T1, human B1R (Homo sapiens, UniProt P46663); assay: FLIPR Ca2+ functional assay, B1R antagonism, human B1R in CHO K1 cells; assay type: cell-based; conditions: test substance 10 μM; hB1R CHO K1 cells; agonist Lys-Des-Arg9 bradykinin at EC80; % of maximum achievable inhibition
T1 construct: expressed in transfected cells; host or cells: CHO K1 cells (Chinese hamster ovary), stably transfected
T1 sequence (P46663 1-353): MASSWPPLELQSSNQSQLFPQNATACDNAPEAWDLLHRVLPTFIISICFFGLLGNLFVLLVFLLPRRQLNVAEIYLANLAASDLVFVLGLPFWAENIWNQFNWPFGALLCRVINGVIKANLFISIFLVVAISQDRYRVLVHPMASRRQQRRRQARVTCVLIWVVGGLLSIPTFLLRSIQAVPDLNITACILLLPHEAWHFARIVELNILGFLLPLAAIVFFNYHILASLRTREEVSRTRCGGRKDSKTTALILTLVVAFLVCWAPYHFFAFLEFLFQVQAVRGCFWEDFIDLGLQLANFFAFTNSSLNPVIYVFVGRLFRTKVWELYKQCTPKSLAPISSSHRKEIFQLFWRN
In short: (§1)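 Stably transfected CHO K1 cells loaded with Fluo-4; Ca2+ fluorescence read on FLIPR (ex 488/em 540 nm). Compound preincubated 10-20 min, then agonist at EC80: Lys-Des-Arg9 bradykinin (human) or Des-Arg9 bradykinin (rat). % inhibition vs maximal inhibition; IC50 from concentration series, n=2-3, N>=2.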

B1R of the rat = molecular target: T2, B1R of the rat (Rattus norvegicus, UniProt P97583); assay: FLIPR Ca2+ functional assay, B1R antagonism, rat B1R in CHO K1 cells; assay type: cell-based; conditions: test substance 10 μM; rB1R CHO K1 cells; agonist Des-Arg9 bradykinin at EC80; % of maximum achievable inhibition
T2 construct: expressed in transfected cells; host or cells: CHO K1 cells (Chinese hamster ovary), stably transfected
T2 sequence (P97583 1-337): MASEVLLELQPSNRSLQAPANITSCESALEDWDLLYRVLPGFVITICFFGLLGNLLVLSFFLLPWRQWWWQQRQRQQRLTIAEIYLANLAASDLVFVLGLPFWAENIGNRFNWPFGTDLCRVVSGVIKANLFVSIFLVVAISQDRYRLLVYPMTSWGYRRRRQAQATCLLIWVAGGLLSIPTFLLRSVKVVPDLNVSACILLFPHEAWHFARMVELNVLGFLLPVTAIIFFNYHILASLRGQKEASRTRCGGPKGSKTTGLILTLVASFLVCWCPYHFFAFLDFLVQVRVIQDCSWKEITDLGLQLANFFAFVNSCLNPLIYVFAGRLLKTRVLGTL
In short: as §1

inhibition at 10 µM (human B1R) | inhibition at 10 µM (B1R of the rat) | Compound
99.7% | 104% | CNCc1ccc2c(c1)CCC(NC(=O)CC1c3cccn3CCN1S(=O)(=O)c1ccc3cc(OC)ccc3c1)C2 (stereo not shown) [Example 137, 2-[2-[(6-Methoxy-naphthalen-2-yl)sulfonyl]-1,2,3,4-tetrahydro-pyrrolo[1,2-a]pyrazin-1-yl]-N-[6-(methylamino-methyl)-1,2,3,4-tetrahydro-naphthalen-2-yl]-acetamide]
99.9% | 106% | O=C(CC1c2cccn2CCN1S(=O)(=O)c1cccc(Cl)c1)NC1CCc2cc(CN3CCCCC3)ccc2C1 (stereo not shown) [Example 47, 2-(2-(3-chlorophenylsulfonyl)-1,2,3,4-tetrahydropyrrolo[1,2-a]-pyrazin-1-yl)-N-(6-(piperidin-1-ylmethyl)-1,2,3,4-tetrahydronaphthalen-2-yl)-acetamide]
99.9% | 102% | Cc1ccc(S(=O)(=O)N2CCn3cccc3C2CC(=O)NC2CCc3cc(CN(C)C(C)(C)C)ccc3C2)cc1Cl (stereo not shown) [Example 75, N-[6-[(tert-Butyl-methyl-amino)-methyl]-1,2,3,4-tetrahydro-naphthalen-2-yl]-2-[2-[(3-chloro-4-methyl-phenyl)sulfonyl]-1,2,3,4-tetrahydro-pyrrolo[1,2-a]pyrazin-1-yl]-acetamide]
99.9% | 96.8% | Cc1ccc(S(=O)(=O)N2CCn3cccc3C2CC(=O)NC2CCc3cc(CNCc4ccccc4)ccc3C2)cc1 (stereo not shown) [Example 93, N-[6-[(Benzylamino)-methyl]-1,2,3,4-tetrahydro-naphthalen-2-yl]-2-[2-(p-tolylsulfonyl)-1,2,3,4-tetrahydro-pyrrolo[1,2-a]pyrazin-1-yl]-acetamide]
100% | 101% | Cc1ccc(S(=O)(=O)N2CCn3cccc3C2CC(=O)NC2CCc3cc(CN4CCCC4)ccc3C2)cc1 (stereo not shown) [Example 123, 2-[2-(p-Tolylsulfonyl)-1,2,3,4-tetrahydro-pyrrolo[1,2-a]pyrazin-1-yl]-N-[6-(pyrrolidin-1-yl-methyl)-1,2,3,4-tetrahydro-naphthalen-2-yl]-acetamide]
99.9% | 101% | Cc1ccc(S(=O)(=O)N2CCn3cccc3C2CC(=O)NC2CCCc3cc(CN4CCCC4)ccc32)cc1 (stereo not shown) [Example 85, 2-[2-(p-Tolylsulfonyl)-1,2,3,4-tetrahydro-pyrrolo[1,2-a]pyrazin-1-yl]-N-[6-(pyrrolidin-1-yl-methyl)-1,2,3,4-tetrahydro-naphthalen-1-yl]-acetamide]

The remaining lines, values behind:

Compound | inhibition at 10 µM (human B1R) | inhibition at 10 µM (B1R of the rat)
Cc1ccc(S(=O)(=O)N2CCn3cccc3C2CC(=O)NC2CCCc3cc(CN(C)C(C)(C)C)ccc32)cc1Cl (stereo not shown) [Example 76, N-[6-[(tert-Butyl-methyl-amino)-methyl]-1,2,3,4-tetrahydro-naphthalen-1-yl]-2-[2-[(3-chloro-4-methyl-phenyl)sulfonyl]-1,2,3,4-tetrahydro-pyrrolo[1,2-a]pyrazin-1-yl]-acetamide] | 99.8% | 101%
COc1ccc2cc(S(=O)(=O)N3CCn4cccc4C3CC(=O)NC3CCc4cc(CNC(C)(C)C)ccc4C3)ccc2c1 (stereo not shown) [Example 31, N-(6-((tert-Butylamino)methyl)-1,2,3,4-tetrahydronaphthalen-2-yl)-2-(2-(6-methoxynaphthalen-2-ylsulfonyl)-1,2,3,4-tetrahydropyrrolo[1,2-a]-pyrazin-1-yl)acetamide] | 100% | 104%
COc1cc(C)c(S(=O)(=O)N2CCn3cccc3C2COCC(=O)N2CCC(Oc3ccncc3)CC2)c(C)c1 (stereo not shown) [Example 13, 2-((2-(4-Methoxy-2,6-dimethylphenylsulfonyl)-1,2,3,4-tetrahydropyrrolo[1,2-a]pyrazin-1-yl)methoxy)-1-(4-(pyridin-4-yloxy)piperidin-1-yl)ethanone] | 100% | 100%
Cc1cccc(Cl)c1S(=O)(=O)N1CCn2cccc2C1COCC(=O)N1CCC2(CC1)CCN(c1ccncc1)CC2 (stereo not shown) [Example 15, 2-((2-(2-Chloro-6-methylphenylsulfonyl)-1,2,3,4-tetrahydropyrrolo[1,2-a]pyrazin-1-yl)methoxy)-1-(9-(pyridin-4-yl)-3,9-diazaspiro[5.5]undecan-3-yl)ethanone] | 99.9% | 98.3%
COc1cc(C)c(S(=O)(=O)N2CCn3cccc3C2COCC(=O)NC2CCN(c3ccc(C(F)(F)F)cn3)CC2)c(C)c1 (stereo not shown) [Example 32, 2-[[2-[(4-Methoxy-2,6-dimethyl-phenyl)sulfonyl]-1,2,3,4-tetrahydro-pyrrolo[1,2-a]pyrazin-1-yl]-methoxy]-N-[1-[5-(trifluoromethyl)-pyridin-2-yl]-piperidin-4-yl]-acetamide] | 8.84% | 65.5%
CCC(C)NCc1ccc2c(c1)CCCC2NC(=O)CC1c2cccn2CCN1S(=O)(=O)c1ccc2cc(OC)ccc2c1 (stereo not shown) [Example 125, 2-[2-[(6-Methoxy-naphthalen-2-yl)sulfonyl]-1,2,3,4-tetrahydro-pyrrolo[1,2-a]pyrazin-1-yl]-N-[6-[(1-methyl-propylamino)-methyl]-1,2,3,4-tetrahydro-naphthalen-1-yl]-acetamide] | 99.6% | 99.1%
O=C(CC1c2cccn2CCN1S(=O)(=O)c1cccc(C(F)(F)F)c1)NC1CCCc2cc(CN3CCOCC3)ccc21 (stereo not shown) [Example 53, N-[6-(Morpholin-4-yl-methyl)-1,2,3,4-tetrahydro-naphthalen-1-yl]-2-[2-[[3-(trifluoromethyl)phenyl]sulfonyl]-1,2,3,4-tetrahydro-pyrrolo[1,2-a]pyrazin-1-yl]-acetamide] | 99% | 102%
COc1ccc2cc(S(=O)(=O)N3CCn4cccc4C3CC(=O)NC3CCCc4cc(CN5CCCc6ccccc65)ccc43)ccc2c1 (stereo not shown) [Example 130, 2-[2-[(6-Methoxy-naphthalen-2-yl)sulfonyl]-1,2,3,4-tetrahydro-pyrrolo[1,2-a]pyrazin-1-yl]-N-[6-(1,2,3,4-tetrahydro-quinolin-1-yl-methyl)-1,2,3,4-tetrahydro-naphthalen-1-yl]-acetamide] | 73.6% | 98.8%
Cc1ccc(S(=O)(=O)N2CCn3cccc3C2CC(=O)NC2CCCc3cc(CN4C5CCCC4CC5)ccc32)cc1 (stereo not shown) [Example 108, N-[6-(8-Azabicyclo[3.2.1]octan-8-yl-methyl)-1,2,3,4-tetrahydro-naphthalen-1-yl]-2-[2-(p-tolylsulfonyl)-1,2,3,4-tetrahydro-pyrrolo[1,2-a]pyrazin-1-yl]-acetamide] | 99.9% | 101%
CN(Cc1ccc2c(c1)CCCC2NC(=O)CC1c2cccn2CCN1S(=O)(=O)c1cccc(C(F)(F)F)c1)C(C)(C)C (stereo not shown) [Example 113, N-[6-[(tert-Butyl-methyl-amino)-methyl]-1,2,3,4-tetrahydro-naphthalen-1-yl]-2-[2-[[3-(trifluoromethyl)phenyl]sulfonyl]-1,2,3,4-tetrahydro-pyrrolo[1,2-a]pyrazin-1-yl]-acetamide] | 99.8% | 97.1%
Cc1ccc(S(=O)(=O)N2CCn3cccc3C2CC(=O)N[C@@H]2CCCc3cc(CNCC(F)(F)F)ccc32)cc1 (stereo partly drawn) [Example 45, 2-(2-Tosyl-1,2,3,4-tetrahydropyrrolo[1,2-a]pyrazin-1-yl)-N—((R)-6-((2,2,2-trifluoroethylamino)methyl)-1,2,3,4-tetrahydronaphthalen-1-yl)acetamide] | 50.6% | 64%
